A short description of assay [1]: ADAM10 inhibitors, peptide cleavage, dose response, biochemical, QFRET (AID 743254).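 Also: ADAM10 enzyme with the DM2 quenched FRET peptide as substrate; EDANS fluorescence gain as the protease cuts the substrate; inhibitor potency against ADAM10 proteolytic activity.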
Assay [2] addresses Disintegrin and metalloproteinase domain-containing protein 17 (Homo sapiens, UniProt P78536). The assay is described as follows: ADAM17 protease inhibitors, dose response, counter-screen for ADAM10 exosite inhibitor project, biochemical, quenched FRET substrate (AID 743253).
For the next assay, the target named is Major prion protein (Homo sapiens, UniProt P04156). It is filed as functional, cell-based.
Assay [3] is described as follows: cells.
In a further assay the target is T1, Galanin receptor type 3 (Homo sapiens, UniProt O60755).
T1 sequence (O60755 whole entry): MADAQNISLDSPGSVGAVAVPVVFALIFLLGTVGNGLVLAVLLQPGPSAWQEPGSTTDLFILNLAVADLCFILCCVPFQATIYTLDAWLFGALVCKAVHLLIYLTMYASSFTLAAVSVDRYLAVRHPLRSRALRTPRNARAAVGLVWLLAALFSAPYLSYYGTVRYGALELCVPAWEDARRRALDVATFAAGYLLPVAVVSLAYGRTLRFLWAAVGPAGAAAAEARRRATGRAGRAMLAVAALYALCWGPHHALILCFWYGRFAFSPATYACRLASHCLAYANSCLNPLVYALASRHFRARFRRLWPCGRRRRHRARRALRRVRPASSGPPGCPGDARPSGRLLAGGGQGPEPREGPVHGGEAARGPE
The assay is described as follows: Fluorescence-based cell-based primary high throughput dose response assay to identify antagonists of the Galanin Receptor 3 (GalR3). In kind it is functional.

Assay [4] in a line: cells. It is filed as functional, cell-based. The following applies: HEK-CNG.
A short description of assay [5]: ZM109 Env clade C HIV-1 fusion inhibitors, dose response, HeLa effector, CEM target cells, luciferase, cherry-pick (AID 652058). It is filed as functional, cell-based.
Assay [6] is described as follows: off-target signal loss in HeLa-CEM21 co-culture – HeLa F-luc CTL cells, cherry-picked, counter-screen for HIV-1 Env fusion inhibitor project, dose response (AID 652040).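 Also: potency for signal decrease marking cytotoxic or nonspecific inhibition.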 It is filed as functional, cell-based.
Assay [7] in a line: inhibitors of clade B AD8 Env fusion, dose response, cell-based, cherry-pick (AID 652062).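 Also: luciferase signal from cell-cell fusion driven by HIV-1 clade B AD8 Env; potency is for inhibitors of fusion seen as a drop in luminescence.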 In kind it is functional.
For assay [8], the target named is COUP transcription factor 2 (Homo sapiens, UniProt P24468). Kind of assay: Luminescence-based cell-based high throughput dose response assay to identify inhibitors of COUP-TFII (NR2F2). In kind it is functional.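 Also: HEK293 cells transiently cotransfected with COUP-TFII expression vector and reporter; luciferase reporter luminescence driven by COUP-TFII from the pX2-168 reporter plasmid.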
Another assay deals with fMet-Leu-Phe receptor (Homo sapiens, UniProt P21462). Kind of assay: FPR ligands, dose response (AID 519). In kind it is functional.
Assay [9] addresses Peroxisome proliferator-activated receptor gamma/Nuclear receptor coactivator 1 (Homo sapiens, UniProt P37231). Kind of assay: TR-FRET dose response biochemical High Throughput Screening assay for agonists of the steroid receptor coactivator 1 (SRC-1) recruitment by the peroxisome proliferator-activated receptor gamma (PPAR gamma): non-selective agonists. [Related pubchem assays (depositor defined):AID1300, AID1808, AID504735, AID631]. It is filed as protein assay.

In assay [10] the target is Peroxisome proliferator-activated receptor gamma/Nuclear receptor coactivator 3 (Homo sapiens, UniProt P37231). Kind of assay: TR-FRET dose response biochemical High Throughput Screening assay for agonists of the steroid receptor coactivator 3 (SRC-3) recruitment by the peroxisome proliferator-activated receptor gamma (PPAR gamma): non-selective agonists. [Related pubchem assays: 1301 (Confirmation screen.), 1048 (Primary screen.)]. In kind it is functional.

Assay [11] addresses Peroxisome proliferator-activated receptor gamma/Nuclear receptor coactivator 2 (Homo sapiens, UniProt P37231). The assay is described as follows: TR-FRET dose response biochemical High Throughput Screening assay for agonists of the steroid receptor coactivator 2 (SRC-2) recruitment by the peroxisome proliferator-activated receptor gamma (PPAR gamma): non-selective agonists. [Related pubchem assays: 1297, 1032 ]. In kind it is functional.

The source of these data is ChEMBL document CHEMBL1201862, “PubChem BioAssay data set” (2004).

Calls of active or inactive are those of the source.

`NC(=O)[C@@H]1CC2(CC(c3cccc(NC(=O)CC(c4ccccc4)c4ccccc4)c3)=NO2)CN1C(=O)COc1ccc(Cl)cc1` (some centres not stated): the IC50 in [1] and in assay [2] was > 69.5 µM (inactive) each time.
For the compound `CCOC(=O)N1CCN(C(=O)COc2ccc3ccccc3c2Br)CC1`, the figures for the IC50 on Major prion protein and in the assay “cells [3]” were 6.28 µM (active) and > 138 µM (inactive), respectively.
Consider `O=C(Nc1ccc(Oc2ccccc2)cc1)c1csc([C@H]2C[C@H](O)[C@@H](CO)O2)n1`, for which the figures for the IC50 (on Galanin receptor type 3; in assay [8]) were 0.4 µM (active) and 5.35 µM (active), respectively. Besides, in the assay “cells [4]”, the EC50 was > 29.9 µM (inactive). Also, the AC50 in [5] was 27.4 µM (active); in assay [6] it was > 70 µM (inactive); in assay [7] it was 5.85 µM (active).
`O=C(NCC1CCCO1)c1ccc(NC(=O)C2CCCCC2C(=O)O)cc1` (configuration not stated): the Ki on fMet-Leu-Phe receptor is > 66.7 µM (inactive).
Consider `CNC(=O)NC(=O)CSc1nc(-c2cccs2)c(C#N)c(=O)[nH]1`, for which the EC50 in assay [9] was > 79.4 µM (inactive); in assay [10], > 79.4 µM (not active); in assay [11], > 79.4 µM (not active). Also, the half-inhibitory concentration (IC50) on Major prion protein is 0.876 µM (active).
For `CNC(=O)NC(=O)CSc1nc(O)c(C#N)c(-c2cccs2)n1`, the IC50 in the assay “cells [3]” is > 138 µM (inactive).
Regarding `O=C(C1=C(O)C(=O)N(Cc2ccccc2)C1c1ccncc1)c1ccco1` (configuration not stated), the Ki on fMet-Leu-Phe receptor is 13.6 µM (active).
